For the test, the system named is BDF1 mice, P388 leukemia ip, median survival T/C. The test can be described thus: NCI In Vivo Anticancer Drug Screen. Data for tumor model P388 Leukemia (intraperitoneal) in B6D2F1 (BDF1) mice. The following applies: endpoint: median survival time, higher = longer survival. Summed up:
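In tumour-bearing mice, survival after compound treatment is set against the vehicle group and given as a quotient.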

Where [1] appears, read: dose: 25.0 mg/kg/injection, schedule: Q04DX003 (ip), vehicle: saline with Tween-80.
[2] abbreviates: dose: 50.0 mg/kg/injection, schedule: Q04DX003 (ip), vehicle: saline with Tween-80.
Where [3] appears, read: dose: 100.0 mg/kg/injection, schedule: Q04DX003 (ip), vehicle: saline with Tween-80.
[4] abbreviates: dose: 100.0 mg/kg/injection, schedule: Q04DX003 (ip), vehicle: Klucel (hydroxypropylcellulose) (HPC).
Setting [5] is: dose: 200.0 mg/kg/injection, schedule: Q04DX003 (ip), vehicle: Klucel (hydroxypropylcellulose) (HPC).
Where [6] appears, read: dose: 25.0 mg/kg/injection, schedule: Q04DX003 (ip), vehicle: saline.
Setting [7] is: dose: 25.0 mg/kg/injection, schedule: Q01DX009 (ip), vehicle: saline.
[8] abbreviates: dose: 50.0 mg/kg/injection, schedule: Q01DX009 (ip), vehicle: saline.
The mark [9] stands for this setting: dose: 12.5 mg/kg/injection, schedule: Q01DX009 (ip), vehicle: saline with Tween-80.
Where [10] appears, read: dose: 50.0 mg/kg/injection, schedule: Q01DX009 (ip), vehicle: saline with Tween-80.
Setting [11] is: dose: 100.0 mg/kg/injection, schedule: Q01DX009 (ip), vehicle: saline with Tween-80.
Where [12] appears, read: dose: 200.0 mg/kg/injection, schedule: Q01DX009 (ip), vehicle: saline with Tween-80.
Setting [13] is: dose: 50.0 mg/kg/injection, schedule: Q01DX005 (ip), vehicle: saline with Tween-80.
The mark [14] stands for this setting: dose: 200.0 mg/kg/injection, schedule: Q04DX003 (ip), vehicle: saline with Tween-80.
The mark [15] stands for this setting: dose: 400.0 mg/kg/injection, schedule: Q01DX009 (ip), vehicle: saline with Tween-80.

“And” between values parts separate entries of the source, which are not always exact repeats. Identical values can stand only once. Toxic doses and inconclusive results are not listed.

For the compound `C/C(=N/O)[c-]1[c-][c-][c-][c-]1.[Fe].[c-]1[c-][c-][cH-][c-]1`, the T/C was 100 % of control under setting [1], 109 % of control under setting [2] and 109 % of control under setting [3].

Turning to `CCOC(=O)N(C)c1ccc(Cl)cc1C(N)=O`, the T/C is, setting by setting: under setting [4], 100 % of control; under setting [5], 94 % of control; (dose: 400.0 mg/kg/injection, schedule: Q04DX003 (ip), vehicle: Klucel (hydroxypropylcellulose) (HPC)) 115 % of control.

With `O=NN1CCNC1=O`, the T/C is, setting by setting: (dose: 7.2 mg/kg/injection, schedule: Q04DX003 (ip), vehicle: saline) 172 % of control; (dose: 10.0 mg/kg/injection, schedule: Q04DX003 (ip), vehicle: saline) 113 % of control; (dose: 16.5 mg/kg/injection, schedule: Q04DX003 (ip), vehicle: saline) 209 % of control; under setting [6], 86 % of control; (dose: 37.5 mg/kg/injection, schedule: Q04DX003 (ip), vehicle: saline) 90 % of control.

For `CC1(C)N=C(N)N=C(N)N1c1ccc(F)c(C(F)(F)F)c1`, the T/C is 120 % of control (dose: 3.12 mg/kg/injection, schedule: Q01DX009 (ip), vehicle: saline); 169 % of control and 189 % of control (dose: 12.5 mg/kg/injection, schedule: Q01DX009 (ip), vehicle: saline); 216 % of control (dose: 16.0 mg/kg/injection, schedule: Q01DX009 (ip), vehicle: saline); 245 % of control and 87 % of control and 191 % of control under setting [7]; 216 % of control under setting [8].

In the case of `CCCCCCOCCN1CCN(CCCN2c3ccccc3Sc3ccc(C(F)(F)F)cc32)CC1`, the T/C reads like this: (dose: 12.5 mg/kg/injection, schedule: Q04DX003 (ip), vehicle: saline with Tween-80) 121 % of control; under setting [1], 97 % of control and 112 % of control; under setting [2], 94 % of control.

Consider `Cc1cc2c(C(C)C)c(O)c(O)cc2c(O)c1-c1c(C)cc2c(C(C)C)c(O)c(O)cc2c1O`, for which the T/C under setting [9] is 91 % of control; the T/C (dose: 25.0 mg/kg/injection, schedule: Q01DX009 (ip), vehicle: saline with Tween-80) is 100 % of control; the T/C under setting [10] was 120 % of control.

As for `CCOC(=O)C(C(C)=O)C(=O)OCC`, the T/C by setting is: (dose: 25.0 mg/kg/injection, schedule: Q04DX003 (ip), vehicle: other) 90 % of control; (dose: 50.0 mg/kg/injection, schedule: Q01DX009 (ip), vehicle: other) 113 % of control; (dose: 50.0 mg/kg/injection, schedule: Q04DX003 (ip), vehicle: other) 99 % of control; (dose: 100.0 mg/kg/injection, schedule: Q01DX009 (ip), vehicle: other) 100 % of control; (dose: 100.0 mg/kg/injection, schedule: Q04DX003 (ip), vehicle: other) 99 % of control; (dose: 200.0 mg/kg/injection, schedule: Q04DX003 (ip), vehicle: other) 92 % of control. Moreover, the T/C (dose: 400.0 mg/kg/injection, schedule: Q01DX009 (ip), vehicle: other) is 88 % of control and the T/C (dose: 400.0 mg/kg/injection, schedule: Q04DX003 (ip), vehicle: other) was 110 % of control.

As for `CC1(C)CS(=O)(=O)CC1=O`, the T/C runs as follows: (dose: 25.0 mg/kg/injection, schedule: Q01DX001 (ip), vehicle: Klucel (hydroxypropylcellulose) (HPC)) 100 % of control; (dose: 50.0 mg/kg/injection, schedule: Q01DX001 (ip), vehicle: Klucel (hydroxypropylcellulose) (HPC)) 100 % of control; (dose: 100.0 mg/kg/injection, schedule: Q01DX001 (ip), vehicle: Klucel (hydroxypropylcellulose) (HPC)) 90 % of control and 104 % of control.

As for `Cn1c(=O)c(S(C)=O)c(O)c2ccccc21` (configuration not stated), the T/C runs as follows: under setting [10], 118 % of control; under setting [11], 100 % of control; under setting [12], 112 % of control.

With `CN(C)CC(=O)Nc1nc(-c2ccc(Cl)cc2)cs1`, the T/C under setting [13] is 101 % of control; the T/C (dose: 100.0 mg/kg/injection, schedule: Q01DX005 (ip), vehicle: saline with Tween-80) is 92 % of control; the T/C (dose: 200.0 mg/kg/injection, schedule: Q01DX005 (ip), vehicle: saline with Tween-80) is 99 % of control.

Take `CC(=O)Oc1cccnc1C(C#N)C#N`: the T/C under setting [13] was 92 % of control.

In the case of `COC(OC)c1cc(=O)[nH]c(NC(=O)C(Cl)Cl)n1`, the T/C under setting [3] was 112 % of control; the T/C under setting [14] was 95 % of control; the T/C (dose: 400.0 mg/kg/injection, schedule: Q04DX003 (ip), vehicle: saline with Tween-80) was 104 % of control.

For the compound `c1ccn2c(CSCc3nnc4ccccn34)nnc2c1`, the T/C was 100 % of control under setting [10], 109 % of control under setting [11] and 109 % of control under setting [12].

On to `CC(=O)n1nc2c(c1CC(C)C)C(=O)C(Nc1ccccc1)=CC2=O`, for which the T/C by setting is: (dose: 100.0 mg/kg/injection, schedule: Q04DX002 (ip), vehicle: saline with Tween-80) 102 % of control; (dose: 200.0 mg/kg/injection, schedule: Q04DX002 (ip), vehicle: saline with Tween-80) 108 % of control; (dose: 400.0 mg/kg/injection, schedule: Q04DX002 (ip), vehicle: saline with Tween-80) 106 % of control.

With `CCN(CC)C(=O)c1ccc(C(Cl)(Cl)Cl)cc1`, the T/C by setting is: under setting [9], 102 % of control; under setting [10], 100 % of control and 109 % of control and 120 % of control; under setting [11], 100 % of control (2×) and 104 % of control; under setting [4], 100 % of control; (dose: 176.0 mg/kg/injection, schedule: Q04DX003 (ip), vehicle: saline sonified) 104 % of control; under setting [12], 112 % of control. Moreover, the T/C reads like this: under setting [5], 95 % of control; (dose: 264.0 mg/kg/injection, schedule: Q04DX003 (ip), vehicle: saline sonified) 104 % of control; under setting [15], 109 % of control.

With `C[N+](C)(Cn1ncc2cc([N+](=O)[O-])ccc21)Cn1ncc2cc([N+](=O)[O-])ccc21`, the T/C is 113 % of control under setting [3] and 104 % of control under setting [14].

Consider `NC(=O)NNC(N)=O`, for which the T/C (dose: 12.5 mg/kg/injection, schedule: Q04DX003 (ip), vehicle: saline) is 105 % of control; the T/C under setting [7] is 100 % of control; the T/C under setting [6] is 116 % of control; the T/C under setting [8] was 100 % of control; the T/C (dose: 50.0 mg/kg/injection, schedule: Q04DX003 (ip), vehicle: saline) is 100 % of control; the T/C (dose: 75.0 mg/kg/injection, schedule: Q04DX003 (ip), vehicle: saline) was 100 % of control. For the same compound, the T/C reads like this: (dose: 115.0 mg/kg/injection, schedule: Q04DX003 (ip), vehicle: saline) 86 % of control; (dose: 170.0 mg/kg/injection, schedule: Q04DX003 (ip), vehicle: saline) 90 % of control.

As for `Cc1ccc(C)c(-n2c(-c3ccc(Br)cc3)csc2=NC(=O)c2ccccc2F)c1`, the T/C under setting [11] was 110 % of control, the T/C under setting [12] is 100 % of control and the T/C under setting [15] is 115 % of control.

As to `COCC(O)CC#N` (configuration not stated), the T/C was 100 % of control (dose: 100.0 mg/kg/injection, schedule: Q01DX009 (ip), vehicle: saline); 95 % of control (dose: 100.0 mg/kg/injection, schedule: Q04DX003 (ip), vehicle: saline); 87 % of control (dose: 200.0 mg/kg/injection, schedule: Q01DX009 (ip), vehicle: saline); 95 % of control (dose: 200.0 mg/kg/injection, schedule: Q04DX003 (ip), vehicle: saline); 95 % of control (dose: 400.0 mg/kg/injection, schedule: Q01DX009 (ip), vehicle: saline); 100 % of control (dose: 400.0 mg/kg/injection, schedule: Q04DX003 (ip), vehicle: saline).

The values are drawn from PubChem BioAssay AID328 (DTP/NCI, 2004).
